Experimental data reported in patent publication US20130165635A1 (priority 2010, published 2013).
Numbered stars: 1 amine (or outer) side, 2 acyl side, 3 side chain; on linkers, the order of the positions; unused ones are H or OH. Bridge positions count the residues as written; N and C are the ends. Square brackets hold non-standard residues; d marks the D form. Peptide text beside a SMILES is read from it. X1 = CC(C)CCCCCCCCC[C@H](CC(=O)[*:1])O[*:2]

Tested on: Trichophyton mentagrophytes
Format: cell-based

CC(C)CCCCCCCCC[C@@H]1CC(=O)N[C@@H](CCC(=O)O)C(=O)N[C@@H](CC(C)C)C(=O)N[C@H](CC(C)C)C(=O)N[C@@H](C(C)C)C(=O)N[C@@H](CC(=O)O)C(=O)N[C@H](CC(C)C)C(=O)N[C@@H](CC(C)C)C(=O)O1 [surfactin] (EL[dL]VD[dL]L; linker N-C via X1)
antifungal activity (growth inhibition of test microorganism): weaker than iturin A, but slight inhibitory activities
